Publication PMC6218659, “Structures of DPAGT1 Explain Glycosylation Disease Mechanisms and Advance TB Antibiotic Design” (Cell, 2018)
Read-outs that look alike come from different tables or passages of the source.

Columns and labels:
Raji cells = experiment: Cell proliferation assay (MTS); format: cell-based, human; details: 24 hrs
Procedure: (§1) In sterile 96-well plate, each well was seeded with ∼1x10^5 cells. The cells are then grown confluent overnight in 100 μl DMEM with 10% FBS. The medium is replenished with DMEM with 2% FBS and added vehicle control or test substance the next day. For test substance in methanol, stock was added to 25 μl of DMEM with 2% FBS or PBS and placed in the laminar flow hood to let the methanol evaporate (about 1-3 hrs). Once the methanol has evaporated, DMEM with 2% FBS was added to final volume of 100 μl of desired test concentration. […] Cells are grown for additional 24 hrs. The cell viability was determined by using Promega CellTiter 96^© AQueous One Solution Cell Proliferation Assay (3-(4,5-dimethylthiazol-2-yl)-5-(3-carboxymethoxyphenyl)-2-(4-sulfophenyl)-2H-tetrazolium, inner salt; MTS) System following the manufacture protocol.

HepG2 cells = experiment: Cell proliferation assay (MTS); format: cell-based, human; details: MTS cell proliferation assay, 24 hrs; highest concentration 400 µg mL-1
Procedure: as §1

HEK293 cells = experiment: Cell proliferation assay (MTS); format: cell-based, human; details: MTS cell proliferation assay, 24 hrs; highest concentration 400 µg mL-1
Procedure: as §1

Mtb H37Rv ATCC27294 = experiment: Minimum inhibitory concentrations testing against Mtb; format: cell-based, Mycobacterium tuberculosis; details: Mycobacterium tuberculosis, Mtb H37Rv
[1] = 168 h, minimal growth medium, read-out: 1-week MIC in GAST/Fe
[2] = 168 h, rich 7H9-based growth medium, read-out: 1-week MIC in 7H9/ADC/Tw

Question: For `CC(=O)N[C@H]1C(O)O[C@H](C[C@@H](O)[C@H]2O[C@@H](n3ccc(=O)[nH]c3=O)[C@H](O)[C@@H]2O)[C@H](O)[C@@H]1O` (stereo partly drawn) [(2), N-acetyl-tunicamyl-uracil], which “LD50 values, Raji” value (Raji cells) is on record?
Answer: Its value is 303.80 ± 9.83 µg/mL.

Question: And the “LD50 values, HepG2” value (HepG2 cells)?
Answer: Its value is “N/A (N/A = not available. No or low cytotoxicity observed at highest, saturating concentration tested (400 µg mL-1))”.

Question: And the “LD50 values, HEK293” value (HEK293 cells)?
Answer: The value was “N/A (N/A = not available. No or low cytotoxicity observed at highest, saturating concentration tested (400 µg mL-1))”.

Question: And the MIC (Mtb H37Rv ATCC27294; [1])?
Answer: The MIC was 42.5 ± 3.5 µg/mL.

Question: What about the MIC (Mtb H37Rv ATCC27294; [2]) of the same molecule?
Answer: Its MIC is > 60 µg/mL.

Question: With `N[C@@H]1CON=C1O` [D-cycloserine, reference compound] as the molecule, how does the MIC (Mtb H37Rv ATCC27294; used for macromolecular incorporation assay, read-out: MIC concentrations for controls) read?
Answer: The MIC was 29 µM.

Question: `NNC(=O)c1ccncc1` [Isoniazid, reference compound] was tested. Which MIC (Mtb H37Rv ATCC27294; tested from 0.024 - 50 μM, read-out: MIC of positive control) did it give?
Answer: The MIC was 0.2 ± 0.1 µM.

Question: What does the source list for `CC(=O)N[C@H]1[C@H](O[C@H]2O[C@H](CO)[C@@H](O)[C@H](O)[C@H]2NC(C)=O)O[C@H](C[C@@H](O)[C@H]2O[C@@H](n3ccc(=O)[nH]c3=O)[C@H](O)[C@@H]2O)[C@H](O)[C@@H]1O` [TUN-Ac,Ac, α-D-N-acetylglucosamine-(1”-11')-N-acetyl tunicamyl uracil]?
Answer: LD50 values, Raji (Raji cells): 212.30 ± 51.48 µg/mL; LD50 values, HepG2 (HepG2 cells): N/A (N/A = not available. No or low cytotoxicity observed at highest, saturating concentration tested (400 µg mL-1)); LD50 values, HEK293 (HEK293 cells): N/A (N/A = not available. No or low cytotoxicity observed at highest, saturating concentration tested (400 µg mL-1)); MIC (Mtb H37Rv ATCC27294; [1]): 21.3 ± 1.8 µg/mL; MIC (Mtb H37Rv ATCC27294; [2]): ≥ 60 µg/mL

Question: With `CC(C)(C)OC(=O)N[C@H]1[C@H](O[C@H]2O[C@H](CO)[C@@H](O)[C@H](O)[C@H]2NC(=O)OC(C)(C)C)O[C@H](C[C@@H](O)[C@H]2O[C@@H](n3ccc(=O)[nH]c3=O)[C@H](O)[C@@H]2O)[C@H](O)[C@@H]1O` [TUN-Boc,Boc, 10',2"-Di-N-Boc-α-D-glucosamine-(1”-11')-tunicamyl uracil] as the molecule, how does the “LD50 values, Raji” value (Raji cells) read?
Answer: The value was 608.9 ± 394.9 µg/mL.

Question: What about the “LD50 values, HepG2” value (HepG2 cells) of the same molecule?
Answer: The value was “N/A (N/A = not available. No or low cytotoxicity observed at highest, saturating concentration tested (400 µg mL-1))”.

Question: And the “LD50 values, HEK293” value (HEK293 cells)?
Answer: The value was “N/A (N/A = not available. No or low cytotoxicity observed at highest, saturating concentration tested (400 µg mL-1))”.

Question: What about the MIC (Mtb H37Rv ATCC27294; [1]) of the same molecule?
Answer: The MIC was > 60 µg/mL.

Question: And the MIC (Mtb H37Rv ATCC27294; [2])?
Answer: Its MIC is > 60 µg/mL.

Question: `C[C@@H](O)[C@H]1C(=O)N2C(C(=O)O)=C(S[C@@H]3CN[C@H](C(=O)N(C)C)C3)[C@H](C)[C@H]12` [meropenem, reference compound] was tested. Which MIC (Mtb H37Rv ATCC27294; with clavulanate at a fixed concentration of 100 μM, read-out: MIC concentration for control) did it give?
Answer: The MIC was 2 µM.
